Data on 19 molecules can be found in US20040006236A1, “Diaminopropionic acid derivatives” (priority 1999, published 2004).

In the assay the test system is Mac-1 and LFA-1-mediated neutrophil binding to immobilized ICAM-1. Nature of the assay: Neutrophil (Mac-1 and LFA-1)/ICAM-1 cell-based screening assay. The settings on record: human neutrophils. As to the method:
Both Mac-1 and LFA-1 are expressed on the cell surface of neutrophils. The ability of antagonists to inhibit Mac-1 and LFA-1-mediated neutrophil binding to immobilized ICAM-1 was quantitated by a cell based assay. Typically, fusion protein consisting of the entire extracellular domain of human ICAM-1 and the Fc domain of human IgG (5dICAM-Ig) was coated onto 96 well microtiter plates (1 μg in 100 μL TBS) overnight at 4° C. The plates were then blocked with 150 μL of 10% PVP in TBS for 1 h at 37° C. Plates were washed 3 times (150 μL each) with TBS. Human neutrophils were purified from whole blood from healthy volunteers using LSM (ICN). Cells (8×10^6/mL) were fluorescently labeled with 6-carboxyfluorescein (100 μg/mL) for 40 min in IMDM/1 mM MgCl2/1.2 mM CaCl2 as described in Example 287. Cells (8×10^6/mL) were stimulated with f-Met-Leu-Phe (10 μM) for 5 min at room temperature just prior to being used in the assay, and diluted to 2×10^6 cells/mL with RPMI/0.05% BSA/0.2 mM MnCl2. Stock solutions (10 mM) of test compounds were diluted to 2.5 mM with DMSO. A series of 1:4 dilutions in DMSO were performed to achieve a concentration range of 38.2 nM-2.5 mM. Each sample was further diluted 50-fold with RPMI/0.05% BSA/0.2 mM MnCl2. Equal volumes of labeled cells were then added to assay tubes containing diluted compound. Final concentrations of compound tested in the assay ranged from 0.38 nM-25 μM with a cell concentration of 1×10^6 per mL. Cells were incubated for 10 min at 37° C. with gentle shaking, then dispensed (100 μL per well) onto ICAM-1 coated plates and incubated for 30 min at 37° C./5% CO2. Unbound cells were washed and plates were read on a Cytofluor™ 2300 (Millipore) as described in Example 384.
A word on the IC50: it is the concentration needed to halve the response being measured. A lower IC50 goes with greater potency. `Cc1cccc(C(=O)NC[C@H](NC(=O)c2ccc(C(=O)NCc3cccc(O)c3)cc2Cl)C(=O)O)c1` [Example 138] yielded an IC50 of 31 nM. The result for `C[C@@H](NC(=O)c1cc(Cl)c(C(=O)N[C@@H](CNC(=O)c2cccs2)C(=O)O)c(Cl)c1)c1cccc2ccccc12` [Example 346, N-[2,6-dichloro-4-[[[(1R)-1-(1-naphthalenyl)ethyl]amino]carbonyl]benzoyl]-3-[(thiophene-2-carbonyl)amino]-L-alanine] reads 9.7 nM; that for `O=C(NCc1cccc(O)c1)c1ccc(C(=O)N[C@@H](CNC(=O)c2cccc(F)c2)C(=O)O)c(Cl)c1` [Example 131], 27 nM. Turning to `COc1ccc(C(=O)NC[C@H](NC(=O)c2c(Cl)cc(C(=O)NCc3cccc(O)c3)cc2Cl)C(=O)O)cc1O` [Example 351], the IC50 amounted to 2.7 nM. `Cc1ccc(C(=O)NC[C@H](NC(=O)c2ccc(C(=O)NCc3cccc(O)c3)cc2Cl)C(=O)O)s1` [Example 160] showed an IC50 of 23 nM. `O=C(NCc1cccc(O)c1)c1ccc(C(=O)N[C@@H](CNC(=O)c2ccc(Br)s2)C(=O)O)c(Cl)c1` [Example 155] had an IC50 of 65 nM.

Consider `O=C(NCc1cccc(O)c1)c1ccc(C(=O)N[C@@H](CNC(=O)c2cccc(Cl)c2)C(=O)O)c(Cl)c1` [Example 123], for which the IC50 came out at 21 nM. `O=C(NCc1cccc(O)c1)c1cc(Cl)c(C(=O)N[C@@H](CNC(=O)c2sccc2Br)C(=O)O)c(Cl)c1` [Example 353] came in with an IC50 of 18.6 nM. Then `O=C(NCc1cccc(O)c1)c1cc(Cl)c(C(=O)N[C@@H](CNC(=O)c2cccc(O)c2)C(=O)O)c(Cl)c1` [Example 350], with 0.7 nM; and `C[C@@H](NC(=O)c1cc(Cl)c(C(=O)N[C@@H](CNC(=O)c2ccccc2)C(=O)O)c(Cl)c1)c1cccc2ccccc12` [Example 347], with 16.1 nM. Take `CC1(C(=O)NC[C@H](NC(=O)c2ccc(C(=O)NCc3cccc(O)c3)cc2Cl)C(=O)O)CCCCC1` [Example 105]: the IC50 amounted to 94 nM.

For `O=C(NCc1cccc(O)c1)c1ccc(C(=O)N[C@@H](CNC(=O)c2cccc(O)c2)C(=O)O)c(Cl)c1` [Example 132], the IC50 turned out to be 4.9 nM. With `COc1cccc(C(=O)NC[C@H](NC(=O)c2ccc(C(=O)NCc3cccc(O)c3)cc2Cl)C(=O)O)c1` [Example 76, N-[2-chloro-4-[[[(3-hydroxyphenyl)methyl]amino]-carbonyl]benzoyl]-3-(3-methoxybenzoylamino)-L-alanine], the half-maximal inhibitory concentration (IC50) came to 63 nM. For the molecule `O=C(NCc1cccc(O)c1)c1ccc(C(=O)N[C@@H](CNC(=O)c2ccsc2)C(=O)O)c(Cl)c1` [Example 161], the IC50 was determined as 44 nM.

The molecule `NS(=O)(=O)c1ccc(C(=O)NC[C@H](NC(=O)c2ccc(C(=O)NCc3cccc(O)c3)cc2Cl)C(=O)O)cc1` [Example 119] registered an IC50 of 220 nM.

`Cc1ccc(C(=O)NC[C@H](NC(=O)c2c(Cl)cc(C(=O)NCc3cccc(O)c3)cc2Cl)C(=O)O)s1` [Example 358] yielded an IC50 of 4.3 nM. Against the preceding molecule, the IC50 is about 51-fold lower.

For the molecule `O=C(NCc1cccc(O)c1)c1cc(Cl)c(C(=O)N[C@@H](CNC(=O)c2cccc(F)c2)C(=O)O)c(Cl)c1` [Example 349], the IC50 is 4.7 nM. `Nc1cccc(C(=O)NC[C@H](NC(=O)c2ccc(C(=O)NCc3cccc(O)c3)cc2Cl)C(=O)O)c1` [Example 118] registered an IC50 of 37 nM. Molecule `O=C(NCc1cccc(O)c1)c1cc(Cl)c(C(=O)N[C@@H](CNC(=O)c2ccc(Br)s2)C(=O)O)c(Cl)c1` [Example 354] returned a half-inhibitory concentration (IC50) of 4.7 nM.
